# Experiments:
# [1] = system: isolates of Aspergillus species; settings: cited from earlier work
# [2] = target: lanosterol 14α—demethylase; settings: target enzyme in the fungus; read-out: IC50 against lanosterol 14α-demethylase; cited from earlier work
# Candida = test: In vitro MIC, NCCLS M27A, Candida species; format: cell-based; parameters: MIC, Candida albicans 1.549 / MIC, Candida albicans Y-01-19 / MIC, C. krusei 766-1 / MIC, C. krusei Q. C / MIC, Candida tropicalis ATCC / MIC, C. glabrata 90030: unit not given beside the values; MIC, Candida albicans A 26 / MIC, C. parapsilosis Q. C.: unit not given here; settings: for MIC, C. glabrata 90030: C. glabrata strain 90030; for MIC, C. krusei 766-1: C. krusei strain 766-1; for MIC, C. krusei Q. C: C. krusei strain Q. C; for MIC, C. parapsilosis Q. C.: C. parapsilosis strain Q. C.; for MIC, Candida albicans 1.549: Candida albicans strain 1.549; for MIC, Candida albicans A 26: Candida albicans strain A 26; for MIC, Candida albicans Y-01-19: Candida albicans strain Y-01-19
# Histoplasma capsulatum = format: cell-based
# A. fumigatus s 1008 = test: In vitro MIC, NCCLS M38P broth method (RPMI 1640/MOPS pH7), Aspergillus fumigatus; format: cell-based; settings: A. fumigatus strain 1008
# Cryptococcus neoformans = test: In vitro MIC, NCCLS M27A, Cryptococcus neoformans; format: cell-based; parameters: MIC, C. neoformans I: unit not given beside the values; MIC, C. neoformans M 106: unit not given here; settings: for MIC, C. neoformans I: C. neoformans strain I; for MIC, C. neoformans M 106: C. neoformans strain M 106
SMILES,minimum inhibitory concentration (MIC) [1] [µg/mL],IC50 [2] [µM],melting point [°C],"MIC, C. glabrata 90030 (Candida)","MIC, C. krusei 766-1 (Candida)","MIC, C. krusei Q. C (Candida)","MIC, C. parapsilosis Q. C. (Candida)","MIC, Candida albicans 1.549 (Candida)","MIC, Candida albicans A 26 (Candida)","MIC, Candida albicans Y-01-19 (Candida)","MIC, Candida tropicalis ATCC (Candida)","MIC, H. capsulatum (Histoplasma capsulatum) [µg/mL]","MIC, A. fumigatus 1008 (A. fumigatus s 1008)","MIC, C. neoformans I (Cryptococcus neoformans)","MIC, C. neoformans M 106 (Cryptococcus neoformans)"
OC(Cn1cncn1)(Cn1cncn1)c1ccc(F)cc1F [fluconazole],400,4.8,,,,,,,,,,,,,
"O=c1n(-c2ccc(N3CCN(c4ccc(Cl)cc4Cl)CC3)cc2)cnn1CC(O)(Cn1cncn1)c1ccc(F)cc1F (centres unmarked) [Compound 50, 2-[2-(2,4-Difluorophenyl)-2-hydroxy-3-(1H-1,2,4-triazol-1-yl)propyl]-4-{4-[4-(2,4-dichlorophenyl)-1-piperazinyl]phenyl}-3-(2H,4H)-1,2,4-triazolone]",,,97 to 99,0.50,0.50,0.25,<0.03,0.12,<0.03,0.12,<0.03,< 0.03,2.00,<0.03,<0.03
"O=c1n(-c2ccc(N3CCN(c4ccc(F)cc4F)CC3)cc2)cnn1CC(O)(Cn1cncn1)c1ccc(F)cc1F (centres unmarked) [Compound 52, 2-[2-(2,4-Difluorophenyl)-2-hydroxy-3-(1H-1,2,4-triazol-1-yl)propyl]-4-{4-[4-(2,4-difluorophenyl)-1-piperazinyl]phenyl}-3-(2H,4H)-1,2,4-triazolone]",,,157 to 158,1.00,4.00,0.50,<0.03,0.06,<0.03,0.12,<0.03,< 0.03,>16,<0.03,<0.03
"O=c1n(-c2ccc(N3CCN(c4ccc(F)c(F)c4)CC3)cc2)cnn1CC(O)(Cn1cncn1)c1ccc(F)cc1F (centres unmarked) [Compound 55, 2-[2-(2,4-Difluorophenyl)-2-hydroxy-3-(1H-1,2,4-triazol-1-yl)propyl]-4-{4-[4-(3,4-difluorophenyl)-1-piperazinyl]phenyl}-3-(2H,4H)-1,2,4-triazolone]",,,117 to 118,0.25,1.00,0.12,<0.03,0.03,<0.03,0.03,<0.03,0.004,>16,<0.03,0.02
"O=c1n(-c2ccc(N3CCN(c4cccc(Cl)c4)CC3)cc2)cnn1CC(O)(Cn1cncn1)c1ccc(F)cc1F (centres unmarked) [Compound 57, 2-[2-(2,4-Difluorophenyl)-2-hydroxy-3-(1H-1,2,4-triazol-1-yl)propyl]-4-{4-[4-(3-chlorophenyl)-1-piperazinyl]phenyl}-3-(2H,4H)-1,2,4-triazolone]",,,177 to 178,0.25,0.50,0.25,<0.03,0.25,<0.03,0.12,<0.03,0.06,>16,<0.03,<0.03
"COc1ccc(N2CCN(c3ccc(-n4cnn(CC(O)(Cn5cncn5)c5ccc(F)cc5F)c4=O)cc3)CC2)cc1 (centres unmarked) [Compound 41, 2-[2-(2,4-Difluorophenyl)-2-hydroxy-3-(1H-1,2,4-triazol-1-yl)propyl]-4-{4-[4-(4-methoxyphenyl)-1-piperazinyl]phenyl}-3-(2H,4H)-1,2,4-triazolone]",,,183 to 186,0.80,1.56,0.40,<0.02,0.05,<0.02,0.10,3.12,< 0.02,6.25,0.10,0.40
"O=c1n(-c2ccc(N3CCN(c4ccc(O)cc4)CC3)cc2)cnn1CC(O)(Cn1cncn1)c1ccc(F)cc1F (centres unmarked) [Compound 44, 2-[2-(2,4-Difluorophenyl)-2-hydroxy-3-(1H-1,2,4-triazol-1-yl)propyl]-4-{4-[4-(4-hydroxyphenyl)-1-piperazinyl]phenyl}-3-(2H,4H)-1,2,4-triazolone]",,,246 to 248,6.25,>12.5,6.25,0.20,>12.5,>12.5,1.56,6.25,1.56,>12.5,1.56,3.12
"O=c1n(-c2ccc(N3CCN(c4ccc(Cl)cc4)CC3)cc2)cnn1CC(O)(Cn1cncn1)c1ccc(F)cc1F (centres unmarked) [Compound 47, 2-[2-(2,4-Difluorophenyl)-2-hydroxy-3-(1H-1,2,4-triazol-1-yl)propyl]-4-{4-[4-(4-chlorophenyl)-1-piperazinyl]phenyl}-3-(2H,4H)-1,2,4-triazolone]",,,207 to 208,3.12,1.56,1.56,<0.02,0.20,<0.02,0.20,<0.02,0.05,3.12,<0.02,0.40
"O=c1n(-c2ccc(N3CCN(c4ccc(F)cc4)CC3)cc2)cnn1CC(O)(Cn1cncn1)c1ccc(F)cc1F (centres unmarked) [Compound 43, 2-[2-(2,4-Difluorophenyl)-2-hydroxy-3-(1H-1,2,4-triazol-1-yl)propyl]-4-{4-[4-(4-fluorophenyl)-1-piperazinyl]phenyl}-3-(2H,4H)-1,2,4-triazolone]",,,173 to 177,0.40,1.56,0.20,<0.02,<0.02,<0.02,0.05,12.50,< 0.02,>12.5,0.05,0.05
"O=c1n(-c2ccc(N3CCN(c4cccc(C(F)(F)F)c4)CC3)cc2)cnn1CC(O)(Cn1cncn1)c1ccc(F)cc1F (centres unmarked) [Compound 51, 2-[2-(2,4-Difluorophenyl)-2-hydroxy-3-(1H-1,2,4-triazol-1-yl)propyl]-4-{4-[4-(3-trifluoromethylphenyl)-1-piperazinyl]phenyl}-3-(2H,4H)-1,2,4-triazolone]",,,166 to 168,1.00,1.00,0.25,0.06,0.25,<0.03,0.25,<0.03,< 0.03,>16,<0.03,<0.03

# — patent US6670363B1, “Azole compounds as therapeutic agents for fungal infections” (Ranbaxy Laboratories Limited, priority 2000, dated 2003)
